The results in this text go back to US6414153B1, “1-phenylpydrrolidin-2-ones and -thiones and 1-(4-pyridyl)pydrrolidin-2-ones and -thiones which are useful in the treatment of inflammatory disease” (Boehringer Ingelheim Pharmaceuticals, Inc., priority 1999, dated 2002).

pKd: −log10 of the molar value.

The target of series [1] is T1, LFA-1 (CD18/CD11a) binding to ICAM-1 (Homo sapiens, UniProt P05107+P20701).
T1 construct: endogenous in cells; host or cells: LFA-1: endogenous, immunopurified from human JY or SKW3 cell lysates. sICAM-1: made in house, secreted from transfected CHO DUX cells
T1 sequence (P20701 26-1170): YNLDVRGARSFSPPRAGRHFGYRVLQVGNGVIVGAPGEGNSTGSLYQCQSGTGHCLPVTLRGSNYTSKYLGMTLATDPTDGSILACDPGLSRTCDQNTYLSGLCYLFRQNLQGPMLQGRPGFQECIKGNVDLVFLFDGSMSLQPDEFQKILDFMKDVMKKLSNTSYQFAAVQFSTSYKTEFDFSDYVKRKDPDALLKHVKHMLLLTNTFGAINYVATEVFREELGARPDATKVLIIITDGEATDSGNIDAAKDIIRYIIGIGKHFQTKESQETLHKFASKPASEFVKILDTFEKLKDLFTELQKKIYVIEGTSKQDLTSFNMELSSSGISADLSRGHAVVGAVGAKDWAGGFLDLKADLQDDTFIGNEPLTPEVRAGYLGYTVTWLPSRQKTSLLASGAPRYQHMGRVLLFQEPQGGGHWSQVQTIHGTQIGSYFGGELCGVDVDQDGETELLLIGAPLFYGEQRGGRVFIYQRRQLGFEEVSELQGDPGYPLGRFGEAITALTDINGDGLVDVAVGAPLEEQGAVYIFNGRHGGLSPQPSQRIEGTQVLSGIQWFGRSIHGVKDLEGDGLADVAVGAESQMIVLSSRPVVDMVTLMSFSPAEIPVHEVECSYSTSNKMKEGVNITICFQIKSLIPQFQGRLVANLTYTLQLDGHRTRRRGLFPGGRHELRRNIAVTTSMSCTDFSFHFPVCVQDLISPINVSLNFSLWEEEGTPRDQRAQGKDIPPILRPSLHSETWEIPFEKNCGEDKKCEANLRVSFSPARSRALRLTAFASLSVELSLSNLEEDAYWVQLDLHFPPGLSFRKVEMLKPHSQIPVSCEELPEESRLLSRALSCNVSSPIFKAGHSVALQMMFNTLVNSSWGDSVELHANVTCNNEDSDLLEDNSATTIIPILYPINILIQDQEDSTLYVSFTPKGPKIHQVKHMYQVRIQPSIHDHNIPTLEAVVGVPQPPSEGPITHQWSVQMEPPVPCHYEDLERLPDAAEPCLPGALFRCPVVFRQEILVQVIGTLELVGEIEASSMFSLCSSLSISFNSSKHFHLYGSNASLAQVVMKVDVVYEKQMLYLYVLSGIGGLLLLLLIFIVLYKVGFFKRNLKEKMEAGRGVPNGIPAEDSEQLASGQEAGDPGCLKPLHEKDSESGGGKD
T1 sequence (P05107 23-769): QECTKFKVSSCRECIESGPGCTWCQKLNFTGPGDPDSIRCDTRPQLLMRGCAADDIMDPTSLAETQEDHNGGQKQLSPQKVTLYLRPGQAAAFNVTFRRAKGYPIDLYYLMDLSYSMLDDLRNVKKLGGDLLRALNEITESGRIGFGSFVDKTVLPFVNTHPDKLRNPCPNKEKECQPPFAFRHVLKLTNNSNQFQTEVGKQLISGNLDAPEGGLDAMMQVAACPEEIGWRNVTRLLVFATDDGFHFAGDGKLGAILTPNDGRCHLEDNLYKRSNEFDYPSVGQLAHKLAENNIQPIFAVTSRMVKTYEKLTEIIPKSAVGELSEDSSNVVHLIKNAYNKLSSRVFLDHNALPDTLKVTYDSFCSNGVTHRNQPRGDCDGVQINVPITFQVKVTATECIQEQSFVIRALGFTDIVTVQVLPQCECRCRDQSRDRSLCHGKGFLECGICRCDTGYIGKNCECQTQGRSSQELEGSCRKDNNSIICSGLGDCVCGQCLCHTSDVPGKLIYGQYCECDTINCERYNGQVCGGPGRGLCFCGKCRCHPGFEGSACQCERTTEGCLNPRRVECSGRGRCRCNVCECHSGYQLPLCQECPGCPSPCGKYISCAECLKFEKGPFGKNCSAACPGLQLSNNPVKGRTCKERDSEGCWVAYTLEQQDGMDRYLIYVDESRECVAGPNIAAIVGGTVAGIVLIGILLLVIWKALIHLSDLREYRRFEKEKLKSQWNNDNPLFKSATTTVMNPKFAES
Put plainly: Assay to Determine Inhibition of LFA-1 Binding to ICAM-1. Particulars: immunoaffinity purified LFA-1 on plate-bound sICAM-1, 37° C. for 1 h, dose-response curve. An excerpt:
This assay protocol is designed to study the direct antagonism, by a test compound, of the interaction of the CAM, ICAM-1 with the Leukointegrin CD18/CD11a (LFA-1).
After collection and neutralization of fractions from the TS2/4 column, samples are pooled and precleared with Protein G agarose.
An expression vector is created with a hamster dihydrofolate reductase gene, a neomycin-resistance marker, and the coding region of the sICAM-1 construct described above, along with the promoter, splice signals, and polyadenylation signal of the SV40 early region. The recombinant plasmid is transfected into CHO DUX cells using standard calcium phosphate methods. Cells are passaged in selective media (G418) and colonies secreting sICAM-1 are amplified using methotrexate. sICAM-1 is purified from serum-free media using traditional non-affinity chromatographic techniques, including ion exchange and size exclusion chromatography.
LFA-1 binding to ICAM-1 is monitored by first incubating sICAM-1 at 40 μg/mL in Dulbecco's phosphate buffered saline with calcium and magnesium, additional 2 mM MgCl2 and 0.1 mM PMSF (Diluting Buffer) in a 96-well plate for 30 min at room temperature. Plates are then blocked by the addition of 2% (w/v) bovine serum albumin in Diluting Buffer for 37° C. for 1 h. Blocking solution is removed from wells, and test compounds are diluted and then added followed by the addition of approximately 25 ng of immunoaffinity purified LFA-1. The LFA-1 is incubated in the presence of test compound and ICAM-1 at 37° C. for 1 h. Wells are washed 3 times with Diluting Buffer. The bound LFA-1 is detected by the addition of a polyclonal antibody directed against a peptide corresponding to the CD18 cytoplasmic tail in a 1:100 dilution with Diluting Buffer and 1% BSA and allowed to incubate for 45 min at 37° C. Wells are washed 3 times with Diluting Buffer and the bound polyclonal antibody is detected by the addition of a 1:4000 dilution of horse radish peroxidase conjugated to goat immunoglobulin directed against rabbit immunoglobulin. This reagent is allowed to incubate for 20 min at 37° C., wells are washed as above and the substrate for the horse radish peroxidase is added to each well to develop a quantitative colorimetric signal proportional to the amount of LFA-1 bound to sICAM-1. […] The lack of the addition of LFA-1 to the binding assay is used as a background control for all samples. A dose-response curve is obtained for all test compounds.

`O=C1C(Cc2ccc(Br)cc2)c2cc(F)ccc2N1c1cc(Cl)cc(Cl)c1` (centres unmarked) [Example 7, 3-(4-bromobenzyl)-1-(3,5-dichlorophenyl)-5-fluoro-1,3-dihydroindol-2-one]: the melting point is 178 to 179 °C. In addition, in series [1], the pKd is 5.57.

With `O=C(O)c1ccc2c(c1)N(c1cc(Cl)cc(Cl)c1)C(=O)C2Cc1ccc(Br)cc1` (centres unmarked) [Example 8, 3-(4-bromobenzyl)-1-(3,5-dichlorophenyl)-1,3-dihydroindol-2-one-6-carboxylic acid], the melting point fell in the range of 264 to 266 °C. In series [1], this molecule showed a pKd of 5.31.

In turn, `CC1(Cc2ccccc2)C(=O)N(c2cc(Cl)cc(Cl)c2)c2cccc(O)c21` (centres unmarked) [Example 16, 3-benzyl-1-(3,5-dichlorophenyl)-4-hydroxy-3-methyl-1,3-dihydroindol-2-one] came in with a melting point of 165 to 166.5 °C. The molecule also showed a pKd in series [1] of 5.84.

`CC1(Cc2cccc(Br)c2)C(=O)N(c2cc(Cl)cc(Cl)c2)c2cccc(O)c21` (centres unmarked) [Example 11, 3-(3-bromobenzyl)-1-(3,5-dichlorophenyl)-4-hydroxy-3-methyl-1,3-dihydroindol-2-one]: the melting point lay in the range of 225 to 227 °C. This molecule also had a negative logarithm of the Kd (pKd) in series [1] of 5.60.

`O=C1C(Cc2ccccc2)c2cc(O)ccc2N1c1cc(Cl)cc(Cl)c1` (centres unmarked) [Example 14, 3-benzyl-1-(3,5-dichlorophenyl)-5-hydroxy-1,3-dihydroindol-2-one] gave a melting point of 232 to 235 °C. The pKd in series [1] was below 5.00.

Molecule `O=C1C(Cc2ccccc2)c2ccccc2N1c1cc(Cl)cc(Cl)c1` (centres unmarked) [Example 15, 3-benzyl-1-(3,5-dichlorophenyl)-1,3-dihydroindol-2-one] gave a melting point of 109 to 111 °C. In series [1], this molecule gave a pKd of 5.30.

On to `O=C1C(Cc2ccccc2)c2c(O)cccc2N1c1cc(Cl)cc(Cl)c1` (centres unmarked) [Example 12, 3-benzyl-1-(3,5-dichlorophenyl)-4-hydroxy-1,3-dihydroindol-2-one], for which the melting point was 181 to 185 °C. In series [1], the pKd was 5.88.

For the molecule `CC1(Cc2ccc(Br)cc2)C(=O)N(c2cc(Cl)cc(Cl)c2)c2cccc(O)c21` (centres unmarked) [Example 6, 3-(4-bromobenzyl)-1-(3,5-dichlorophenyl)-4-hydroxy-3-methyl-1,3-dihydroindol-2-one], the melting point lay in the range of 225 to 227 °C. Besides, the pKd in series [1] was 5.75.

Turning to `CC1(Cc2ccc(C#N)cc2)C(=O)N(c2cc(Cl)cc(Cl)c2)c2ncccc21` (centres unmarked) [Example 5, 3-(4-cyanobenzyl)-1-(3,5-dichlorophenyl)-3-methyl-1,3-dihydropyrrolo[2,3-b]pyridin-2-one], the pKd in series [1] is 5.45.

Consider `O=C1C(Cc2ccc(Br)cc2)c2c(O)cccc2N1c1cc(Cl)cc(Cl)c1` (centres unmarked) [Example 17, 3-(4-bromobenzyl)-1-(3,5-dichlorophenyl)-4-hydroxy-1,3-dihydroindol-2-one], for which the melting point was 203 to 208 °C. Further, in series [1], the pKd was 6.04.

For the molecule `COc1cccc2c1C(Cc1ccccc1)C(=O)N2c1cc(Cl)cc(Cl)c1` (centres unmarked) [Example 9, 3-benzyl-1-(3,5-dichlorophenyl)-4-methoxy-1,3-dihydroindol-2-one], the melting point lay within 138 to 140 °C. In series [1], this molecule gave a pKd of 6.15.

The molecule `COc1cccc2c1C(Cc1cccc(Br)c1)C(=O)N2c1cc(Cl)cc(Cl)c1` (centres unmarked) [Example 10, 3-(3-bromobenzyl)-1-(3,5-dichlorophenyl)-4-methoxy-1,3-dihydroindol-2-one] displayed a melting point of 142 to 144 °C. Moreover, the pKd in series [1] is 5.97.

The molecule `O=C1C(Cc2ccc(Br)cc2)c2ccccc2N1c1cc(Cl)cc(Cl)c1` (centres unmarked) [Example 1, 3-(4-Bromobenzyl)-1-(3,5-dichlorophenyl)-1,3-dihydroindol-2-one] came in with a melting point of 139 to 142 °C. This molecule also showed a pKd in series [1] below 5.00.

In the case of `COc1ccc2c(c1)C(Cc1ccccc1)C(=O)N2c1cc(Cl)cc(Cl)c1` (centres unmarked) [Example 13, 3-benzyl-1-(3,5-dichlorophenyl)-5-methoxy-1,3-dihydroindol-2-one], the melting point was 118 to 119 °C. In series [1], the pKd is below 5.00.

For the molecule `CC1(Cc2ccc(Br)cc2)C(=O)N(c2cc(Cl)cc(Cl)c2)c2ccccc21` (centres unmarked) [Example 2, 3-(4-Bromobenzyl)-1-(3,5-dichlorophenyl)-3-methyl-1,3-dihydro-indol-2-one], the negative-log Kd (pKd) in series [1] is below 5.00.

In series [1], `CC1(Cc2ccc(Br)cc2)C(=O)N(c2cc(Cl)cc(Cl)c2)c2ncccc21` (centres unmarked) [Example 3, 3-(4-Bromobenzyl)-1-(3,5-dichlorophenyl)-3-methyl-1,3-dihydropyrrolo[2,3-b]pyridin-2-one] showed a pKd of 6.43.

For orientation: pKd means −log10 of the Kd, conventionally taken in molar units. In general, melting point refers to the temperature of the solid-liquid transition.
